Among the data in ChEMBL document CHEMBL1201862, “PubChem BioAssay data set” (2004) are AC50 and IC50 values, retold here.

Calls of active or inactive are those of the source.

For one data set, the target named is Cytochrome P450 3A4 (Homo sapiens, UniProt P08684).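 Further: CYP3A4 tested as one member of a cytochrome P450 panel screen.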
The target of data set [1] is Voltage-gated inwardly rectifying potassium channel KCNH2 (Homo sapiens, UniProt Q12809). To be noted: Potency.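 Further: confirmatory quantitative high-throughput screen measuring inhibition of hERG channel activity.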
Sequence of Voltage-gated inwardly rectifying potassium channel KCNH2 (Q12809 whole entry): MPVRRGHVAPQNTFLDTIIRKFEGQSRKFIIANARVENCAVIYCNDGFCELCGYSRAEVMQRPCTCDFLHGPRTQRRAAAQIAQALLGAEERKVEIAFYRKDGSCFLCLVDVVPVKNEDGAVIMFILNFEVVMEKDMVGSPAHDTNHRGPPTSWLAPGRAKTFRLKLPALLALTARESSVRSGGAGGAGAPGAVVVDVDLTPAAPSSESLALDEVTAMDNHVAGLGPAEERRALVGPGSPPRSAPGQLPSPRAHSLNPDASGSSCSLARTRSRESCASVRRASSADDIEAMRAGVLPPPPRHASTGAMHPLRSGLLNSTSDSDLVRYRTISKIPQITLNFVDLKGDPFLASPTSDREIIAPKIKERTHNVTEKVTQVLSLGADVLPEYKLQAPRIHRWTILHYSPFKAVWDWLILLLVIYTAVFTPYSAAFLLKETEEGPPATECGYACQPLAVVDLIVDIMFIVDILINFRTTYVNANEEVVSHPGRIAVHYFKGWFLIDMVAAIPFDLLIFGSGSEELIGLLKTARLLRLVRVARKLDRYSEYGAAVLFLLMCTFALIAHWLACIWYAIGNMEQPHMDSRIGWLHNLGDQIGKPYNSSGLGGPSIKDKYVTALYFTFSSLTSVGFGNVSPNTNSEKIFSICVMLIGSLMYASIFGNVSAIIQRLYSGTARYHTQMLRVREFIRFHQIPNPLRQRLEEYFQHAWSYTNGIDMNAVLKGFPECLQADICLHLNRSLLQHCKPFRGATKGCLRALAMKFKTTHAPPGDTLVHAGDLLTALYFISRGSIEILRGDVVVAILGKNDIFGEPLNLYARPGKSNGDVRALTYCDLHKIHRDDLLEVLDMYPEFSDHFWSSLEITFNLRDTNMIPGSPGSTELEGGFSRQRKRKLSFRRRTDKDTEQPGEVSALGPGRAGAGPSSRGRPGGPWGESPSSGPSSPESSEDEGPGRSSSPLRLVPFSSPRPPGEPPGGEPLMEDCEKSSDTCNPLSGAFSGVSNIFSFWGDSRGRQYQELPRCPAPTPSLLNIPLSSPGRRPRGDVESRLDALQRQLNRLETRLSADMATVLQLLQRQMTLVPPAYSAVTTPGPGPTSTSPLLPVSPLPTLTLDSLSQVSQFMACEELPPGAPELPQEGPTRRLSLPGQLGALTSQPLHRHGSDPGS
In the next data set the target is T1, Hexokinase-1 (Homo sapiens, UniProt P19367).
T1 sequence (P19367 whole entry): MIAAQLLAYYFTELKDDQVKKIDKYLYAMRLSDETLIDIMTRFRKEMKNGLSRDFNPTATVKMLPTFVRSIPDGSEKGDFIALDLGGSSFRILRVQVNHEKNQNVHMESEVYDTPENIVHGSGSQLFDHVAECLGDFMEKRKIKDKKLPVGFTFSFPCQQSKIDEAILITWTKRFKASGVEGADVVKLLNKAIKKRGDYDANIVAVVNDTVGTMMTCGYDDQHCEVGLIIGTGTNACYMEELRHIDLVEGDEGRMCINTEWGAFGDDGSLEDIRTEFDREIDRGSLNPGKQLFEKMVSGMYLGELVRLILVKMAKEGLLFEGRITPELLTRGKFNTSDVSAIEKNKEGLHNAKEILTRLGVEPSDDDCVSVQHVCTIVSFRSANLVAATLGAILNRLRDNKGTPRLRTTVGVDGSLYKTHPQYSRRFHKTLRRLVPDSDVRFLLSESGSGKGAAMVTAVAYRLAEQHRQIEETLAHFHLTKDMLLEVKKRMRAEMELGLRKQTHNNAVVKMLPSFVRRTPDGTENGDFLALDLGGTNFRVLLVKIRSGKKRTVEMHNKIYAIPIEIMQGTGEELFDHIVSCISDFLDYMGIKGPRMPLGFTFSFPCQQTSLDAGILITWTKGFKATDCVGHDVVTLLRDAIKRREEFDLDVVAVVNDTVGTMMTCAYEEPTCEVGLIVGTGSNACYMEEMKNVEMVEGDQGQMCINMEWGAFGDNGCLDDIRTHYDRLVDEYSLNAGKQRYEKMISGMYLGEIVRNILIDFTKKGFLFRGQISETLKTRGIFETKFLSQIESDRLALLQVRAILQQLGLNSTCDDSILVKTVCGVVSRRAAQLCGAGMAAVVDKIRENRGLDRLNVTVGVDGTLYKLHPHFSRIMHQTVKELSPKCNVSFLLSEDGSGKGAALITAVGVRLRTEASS
Nature of the data set: HK1 enzyme inhibition by HKDC1 hits, SAR follow-up, selectivity assay for HKDC1 inhibitor project, biochemical, set 2, resazurin fluorescence coupled readout (AID 588356). The class given is functional. A general note: Alamar Blue is a resazurin reagent that responds to reducing activity.

Another data set concerns the target T2, Hexokinase HKDC1 (Homo sapiens, UniProt Q2TB90).
T2 sequence (Q2TB90 whole entry): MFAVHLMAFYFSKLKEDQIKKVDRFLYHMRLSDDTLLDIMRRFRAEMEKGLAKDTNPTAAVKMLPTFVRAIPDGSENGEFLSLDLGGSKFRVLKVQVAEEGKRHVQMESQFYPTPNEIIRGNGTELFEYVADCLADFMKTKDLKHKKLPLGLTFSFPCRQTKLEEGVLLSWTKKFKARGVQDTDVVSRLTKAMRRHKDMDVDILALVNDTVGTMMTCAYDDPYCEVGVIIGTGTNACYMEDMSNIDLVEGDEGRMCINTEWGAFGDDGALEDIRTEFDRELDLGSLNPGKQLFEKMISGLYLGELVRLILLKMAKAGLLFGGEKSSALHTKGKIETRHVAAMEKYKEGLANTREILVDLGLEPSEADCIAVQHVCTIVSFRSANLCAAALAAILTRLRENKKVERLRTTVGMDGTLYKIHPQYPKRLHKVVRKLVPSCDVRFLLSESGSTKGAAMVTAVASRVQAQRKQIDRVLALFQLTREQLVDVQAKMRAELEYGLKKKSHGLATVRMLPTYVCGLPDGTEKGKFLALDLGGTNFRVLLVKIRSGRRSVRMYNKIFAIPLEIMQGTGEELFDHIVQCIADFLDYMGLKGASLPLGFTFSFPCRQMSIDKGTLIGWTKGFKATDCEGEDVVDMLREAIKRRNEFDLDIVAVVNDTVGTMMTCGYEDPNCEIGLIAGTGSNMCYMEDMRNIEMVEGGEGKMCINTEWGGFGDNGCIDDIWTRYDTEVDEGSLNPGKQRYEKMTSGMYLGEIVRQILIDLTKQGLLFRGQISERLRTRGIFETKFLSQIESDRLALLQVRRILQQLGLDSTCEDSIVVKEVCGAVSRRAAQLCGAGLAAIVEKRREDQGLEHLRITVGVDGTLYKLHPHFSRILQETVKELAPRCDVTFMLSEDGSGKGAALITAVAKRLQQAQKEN
Nature of the data set: HKDC1 hexokinase inhibitors, SAR follow-up, biochemical, set 2 (AID 588355). The data set is classed as functional.

For a further data set, the system named is NIH3T3. Nature of the data set: cytotoxicity in NIH-3T3 fibroblasts, dose response, cytotoxicity control for antifungal drug resistance project, cell-based, Alamar Blue, fluconazole, dry powder (AID 488809). The data set is classed as functional. The conditions noted are these: Mus musculus.
Data set [2] deals with Dual specificity protein kinase CLK1 (Homo sapiens, UniProt P49759). The experiment in a line: CLK1 kinase inhibitors, off-target check, dose response, selectivity assay for Dyrk1A inhibitor project, biochemical, cherry-picked samples (AID 588811).
Sequence of Dual specificity protein kinase CLK1 (P49759 whole entry): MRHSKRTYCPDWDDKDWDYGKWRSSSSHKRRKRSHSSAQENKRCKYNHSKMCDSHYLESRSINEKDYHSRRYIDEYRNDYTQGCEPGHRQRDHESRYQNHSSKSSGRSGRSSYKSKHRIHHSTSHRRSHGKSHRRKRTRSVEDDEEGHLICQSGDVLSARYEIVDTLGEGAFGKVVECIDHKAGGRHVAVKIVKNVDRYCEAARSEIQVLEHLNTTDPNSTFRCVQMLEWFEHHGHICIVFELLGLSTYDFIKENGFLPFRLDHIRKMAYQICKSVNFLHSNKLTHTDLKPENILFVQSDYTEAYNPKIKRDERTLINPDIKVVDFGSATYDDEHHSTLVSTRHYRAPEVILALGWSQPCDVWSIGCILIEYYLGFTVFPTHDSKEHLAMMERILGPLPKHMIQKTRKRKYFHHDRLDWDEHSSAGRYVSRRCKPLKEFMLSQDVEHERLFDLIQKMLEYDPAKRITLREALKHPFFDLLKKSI
The next data set addresses Cytochrome P450 2C9 (Homo sapiens, UniProt P11712).
A further data set has as its target Cytochrome P450 2C19 (Homo sapiens, UniProt P33261). The experiment in a line: Cytochrome panel assay with activity outcomes. Panel member name: p450-cyp2c19 Compounds with AC50 equal or less than 10 uM are considered active. To be noted: read-out: AC50. The data set is classed as functional.
The target in another data set is Trypsin (Sus scrofa, UniProt P00761). Nature of the data set: porcine trypsin inhibitors, dose response, selectivity assay for Rce1 protease inhibitor project, biochemical, quenched peptide fluorescence, cherry-pick (AID 488789).
Sequence of Trypsin (P00761 whole entry, the tested form may be a part): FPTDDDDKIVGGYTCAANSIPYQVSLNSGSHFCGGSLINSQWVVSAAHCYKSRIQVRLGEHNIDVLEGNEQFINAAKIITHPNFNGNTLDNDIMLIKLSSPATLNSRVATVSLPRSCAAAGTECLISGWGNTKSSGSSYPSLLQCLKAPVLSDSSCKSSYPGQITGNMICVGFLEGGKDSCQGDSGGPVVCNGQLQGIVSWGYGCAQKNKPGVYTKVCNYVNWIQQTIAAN
The target in data set [3] is T3, Runt-related transcription factor 1/Core-binding factor subunit beta (Homo sapiens, UniProt Q01196+Q13951). Nature of the data set: inhibitors of RUNX1 Runt–CBFb-SMMHC binding, primary screen, biochemical, FRET, Cerulean-Runt, Venus-CBFb-SMMHC, uHTS (AID 1434).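 Further: partner is the CBFb-SMMHC leukemia fusion protein rather than wild-type CBFb.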 The class given is protein assay.
T3 sequence (Q01196 whole entry, the tested form may be a part): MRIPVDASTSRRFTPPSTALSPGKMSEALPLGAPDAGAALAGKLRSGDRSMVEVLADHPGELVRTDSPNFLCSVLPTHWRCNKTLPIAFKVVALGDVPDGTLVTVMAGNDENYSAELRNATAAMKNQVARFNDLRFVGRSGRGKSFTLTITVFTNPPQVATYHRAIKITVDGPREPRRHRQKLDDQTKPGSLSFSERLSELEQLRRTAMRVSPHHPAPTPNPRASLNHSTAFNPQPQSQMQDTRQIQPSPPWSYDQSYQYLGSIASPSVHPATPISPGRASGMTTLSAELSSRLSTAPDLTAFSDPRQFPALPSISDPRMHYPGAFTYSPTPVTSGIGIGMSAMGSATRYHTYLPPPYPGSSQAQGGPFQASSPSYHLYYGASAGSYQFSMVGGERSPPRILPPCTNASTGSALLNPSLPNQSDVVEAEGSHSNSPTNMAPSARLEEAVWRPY
T3 sequence (Q13951 whole entry, the tested form may be a part): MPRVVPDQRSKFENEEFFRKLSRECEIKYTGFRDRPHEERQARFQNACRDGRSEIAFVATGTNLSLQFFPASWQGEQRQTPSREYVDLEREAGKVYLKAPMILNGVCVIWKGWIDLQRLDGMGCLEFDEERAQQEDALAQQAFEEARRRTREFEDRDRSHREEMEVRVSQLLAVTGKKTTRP
For data set [4], the target named is T3, Runt-related transcription factor 1/Core-binding factor subunit beta. The experiment in a line: inhibitors of RUNX1 Runt–CBFb-SMMHC binding, biochemical, TR-FRET (AID 1438). The data set is classed as protein assay.
The next data set addresses CAAX prenyl protease 2 (Homo sapiens, UniProt Q9Y256). The experiment in a line: human Rce1 protease inhibitors, dose response, biochemical, yeast membranes, quenched-peptide fluorescence, cherry-pick (AID 588849).
For data set [5], the target named is Dual specificity tyrosine-phosphorylation-regulated kinase 1A (Rattus norvegicus, UniProt Q63470). The class given is biochemical, Homo sapiens.

Sequence of Cytochrome P450 3A4 (P08684 whole entry): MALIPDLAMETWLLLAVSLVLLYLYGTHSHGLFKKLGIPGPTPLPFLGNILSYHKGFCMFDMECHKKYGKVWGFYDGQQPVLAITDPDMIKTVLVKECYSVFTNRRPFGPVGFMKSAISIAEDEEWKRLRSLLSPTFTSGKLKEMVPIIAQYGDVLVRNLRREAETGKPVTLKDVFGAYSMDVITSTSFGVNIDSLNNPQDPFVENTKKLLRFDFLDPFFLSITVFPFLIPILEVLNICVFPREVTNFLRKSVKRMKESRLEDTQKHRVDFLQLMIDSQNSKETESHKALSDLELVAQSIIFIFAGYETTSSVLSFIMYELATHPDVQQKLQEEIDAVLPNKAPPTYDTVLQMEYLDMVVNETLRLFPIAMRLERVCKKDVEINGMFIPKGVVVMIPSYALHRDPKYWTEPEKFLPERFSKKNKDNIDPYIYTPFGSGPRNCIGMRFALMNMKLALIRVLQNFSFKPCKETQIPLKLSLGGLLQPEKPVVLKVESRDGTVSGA
Sequence of Cytochrome P450 2C19 (P33261 whole entry): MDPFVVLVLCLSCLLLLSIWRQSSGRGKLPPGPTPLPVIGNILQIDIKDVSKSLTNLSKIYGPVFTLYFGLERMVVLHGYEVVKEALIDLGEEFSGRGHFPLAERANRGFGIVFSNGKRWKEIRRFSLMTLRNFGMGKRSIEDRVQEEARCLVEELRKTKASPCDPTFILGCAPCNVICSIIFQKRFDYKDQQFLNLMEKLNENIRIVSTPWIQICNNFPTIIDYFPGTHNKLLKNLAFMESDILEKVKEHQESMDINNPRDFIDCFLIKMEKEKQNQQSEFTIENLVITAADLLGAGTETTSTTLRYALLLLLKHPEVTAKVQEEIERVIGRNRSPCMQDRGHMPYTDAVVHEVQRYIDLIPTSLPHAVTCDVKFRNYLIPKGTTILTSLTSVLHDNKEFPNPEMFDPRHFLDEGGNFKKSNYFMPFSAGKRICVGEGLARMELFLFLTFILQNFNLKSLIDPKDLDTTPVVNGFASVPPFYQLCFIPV
Sequence of CAAX prenyl protease 2 (Q9Y256 whole entry): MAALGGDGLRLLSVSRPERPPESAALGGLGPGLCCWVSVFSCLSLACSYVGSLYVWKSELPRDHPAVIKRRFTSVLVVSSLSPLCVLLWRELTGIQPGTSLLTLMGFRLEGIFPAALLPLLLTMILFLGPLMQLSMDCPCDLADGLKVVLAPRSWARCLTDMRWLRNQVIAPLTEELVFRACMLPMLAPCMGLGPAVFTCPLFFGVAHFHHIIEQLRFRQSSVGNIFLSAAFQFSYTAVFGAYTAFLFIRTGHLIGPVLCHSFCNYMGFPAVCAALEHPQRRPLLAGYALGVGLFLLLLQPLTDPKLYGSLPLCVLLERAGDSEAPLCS
Sequence of Cytochrome P450 2C9 (P11712 whole entry): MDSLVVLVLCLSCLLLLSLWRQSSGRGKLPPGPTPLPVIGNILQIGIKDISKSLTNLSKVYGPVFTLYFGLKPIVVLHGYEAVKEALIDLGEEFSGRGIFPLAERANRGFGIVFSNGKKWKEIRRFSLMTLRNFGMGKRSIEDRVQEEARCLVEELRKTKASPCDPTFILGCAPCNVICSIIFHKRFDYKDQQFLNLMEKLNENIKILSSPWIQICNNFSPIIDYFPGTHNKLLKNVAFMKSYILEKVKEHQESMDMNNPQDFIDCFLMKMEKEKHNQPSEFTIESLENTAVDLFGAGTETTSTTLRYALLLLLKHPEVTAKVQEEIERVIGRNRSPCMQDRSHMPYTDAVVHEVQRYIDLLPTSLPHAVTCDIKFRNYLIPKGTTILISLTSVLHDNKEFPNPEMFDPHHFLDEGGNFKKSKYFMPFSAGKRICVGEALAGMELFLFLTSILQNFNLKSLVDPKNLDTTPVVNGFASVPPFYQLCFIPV

As to `O=S(=O)(O)C1CCNCC1`, the values for the AC50 result (on Cytochrome P450 3A4; in [1]) were “inconclusive” and 22.4 µM (inconclusive), respectively.
Take `Cc1ccc(N2C(=O)c3cccnc3C2Nc2ccc(C)c(C)c2)cc1` (stereo not drawn): the IC50 on Hexokinase-1 and on Hexokinase HKDC1 was > 80 µM (inactive) each time.
For `O=C(c1ccc(Cl)cc1)N1CCN(c2cc(C(F)(F)F)nc3ccccc23)CC1`, the AC50 (as a rule, the midpoint of the concentration-response curve, whichever way the signal moves) with NIH3T3 is 23.2 µM (active).
With `c1cncc(CNc2cc(-c3ccc4c(c3)OCO4)ncn2)c1`, the figures for the concentration at half-maximal activity (AC50) (in data set [2]; at Cytochrome P450 2C9; on Cytochrome P450 2C19) were 5.2 µM (active), 0.316 µM (inconclusive) and 25.1 µM (inconclusive), respectively.
Consider `Cc1ccc(S(=O)(=O)Oc2ccc(C3C4=C(CCCC4=O)N(CCC(=O)O)C4=C3C(=O)CCC4)cc2Cl)cc1`, for which the AC50 at Trypsin is 6.27 µM (active); on CAAX prenyl protease 2 it was 11.4 µM (active). Also, the IC50 (as a rule, the midpoint of a concentration-inhibition curve) in [3] was 0.393 µM (active); in data set [4] it was 14.6 µM (active).
Take `COc1ccc2c(c1)CCc1sc(NC(=O)c3ccco3)nc1-2`: in data set [5], the concentration at half-maximal activity (AC50) was 2.01 µM (active).
